This is an account of results in patent US20090215727A1, “INHIBITION OF ATP-MEDIATED, P2X7 DEPENDENT PATHWAYS BY PYRIDOXAL-5-PHOSPHATE AND VITAMIN B6 RELATED COMPOUNDS” (MEDICURE INTERNATIONAL INC., priority 2005, published 2009).

Entries after “also recorded” stand apart in the source; their conditions may differ.

The test system of experiment [1] is IL-1β processing and release from PMA/LPS stimulated THP-1 cells. The experiment is described as follows: ATP-induced processing and release of IL-1β from PMA/LPS stimulated THP-1 cells (human IL-1β ELISA). Type of experiment: cell-based. The settings on record: 5 mM ATP for one hour; for effect on ATP-induced processing and release of IL-1β: test compound 0.5-150 μM, 30 min pretreatment, IL-1β in media by ELISA. How it is done: THP-1 non-adherent, monocytic cells (ATCC) were pre-treated with phorbol-12-myristate-13-acetate (PMA), which differentiated the cells into macrophage-like cells. Briefly, approximately 8×10^6 THP-1 cells were harvested, pelleted, resuspended in media to which PMA was added at a final concentration of 0.5 μM. The cells were incubated for 3 hours, then collected, washed, and plated.
The next day, the cells were treated with lipopolysaccharide (LPS) to stimulate IL-1β production. Briefly, the media was removed and replaced with RPI media+10% fetal calf serum containing 100 ng/ml of LPS. Cells were incubated for an additional 24 hours.
Cells were pretreated for 30 minutes, then the media was replaced with media containing 5 mM ATP as well as the test compound. Cells were exposed to ATP for one hour. Media was then collected and the amount of IL-1β in the media was determined using a human IL-1β ELISA (R&D Systems).
Results were expressed as the mean±sem. Statistical analysis was performed using […] (Medistats). […] IL-1β levels were measured in the cell culture media by ELISA and the results are expressed as a percent of the untreated (baseline) controls.
A general note: In an ELISA, binding on a coated surface is turned into a signal by an enzyme label.

The target in a further experiment is T1, rat P2X7 receptor (Rattus norvegicus, UniProt Q64663).
T1 construct: expressed in transfected cells; host or cells: HEK 293
T1 sequence (Q64663 1-595): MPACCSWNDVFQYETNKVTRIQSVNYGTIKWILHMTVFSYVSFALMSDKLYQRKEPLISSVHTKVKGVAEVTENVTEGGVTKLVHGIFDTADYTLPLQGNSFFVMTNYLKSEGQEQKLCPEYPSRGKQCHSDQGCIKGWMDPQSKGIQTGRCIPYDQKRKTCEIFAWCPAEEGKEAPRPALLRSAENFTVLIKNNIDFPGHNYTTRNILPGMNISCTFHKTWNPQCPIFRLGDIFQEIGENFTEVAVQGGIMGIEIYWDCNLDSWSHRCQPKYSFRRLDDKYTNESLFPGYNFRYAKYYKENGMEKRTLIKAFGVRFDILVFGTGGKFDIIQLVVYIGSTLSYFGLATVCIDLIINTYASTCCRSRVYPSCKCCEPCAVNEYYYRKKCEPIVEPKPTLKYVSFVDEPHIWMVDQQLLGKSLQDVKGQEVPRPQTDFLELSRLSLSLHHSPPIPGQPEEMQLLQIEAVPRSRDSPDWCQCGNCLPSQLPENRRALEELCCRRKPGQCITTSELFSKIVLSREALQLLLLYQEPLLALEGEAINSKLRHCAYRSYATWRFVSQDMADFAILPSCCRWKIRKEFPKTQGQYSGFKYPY
In words: MTT cell viability assay in HEK 293 cells stably expressing rat P2X7 (ATP-mediated, P2X7-dependent cell death). It counts as cell-based. The conditions noted are these: HEK 293 P2X7 (rat) cells. How it is done: HEK 293 cells were stably transfected to express rat P2X7 receptor, using standard tissue culture techniques (Surprenant et al, 1996). The cell line was known to not express any of the other P2X receptors (Schachter et al, 1997). Stable expression of P2X7 was confirmed by Western blot (results not shown).
(§1) Parent (HEK 293) cells, and HEK 293 cells expressing rat P2X7 (HEK 293 P2X7 (rat) cells) were treated with ATP (Sigma, A9062) to determine the effects of ATP on the viability of the cells. Cell viability was determined using an MTT assay (Wen, 2003). Cells were treated with between 0 and 2 μM of ATP. MTT was added to the cell cultures 180 minutes after ATP treatment. The MTT assay was performed 60 minutes after the addition of MTT. Cell viability was directly correlatable to the absorbance of 550 nm light by the cell culture, with a higher absorbance meaning higher cell viability. The cell culture media was removed and the cells were solubilized using DMSO. The absorbance of the solubilized cells was read.
(§2) HEK 293 and HEK 293 P2X7 (rat) cells were treated with 0 to 50 μM of P5P, a vitamin B6 related compound, in sodium salt form (Chemistry Department, CanAm Bioresearch Inc.). Thirty minutes later, cells were treated with 0.4 μM ATP, to determine the effects of ATP on the viability of the MC-1 treated cells. Control cells received sham treatment of P5P, and sham treatment of ATP.
Cell viability was determined using an MTT assay. MTT was added to the cell cultures 180 minutes after ATP treatment. The MTT assay was performed 60 minutes after the addition of MTT. Cell viability was directly correlatable to the absorbance of 550 nm light by the cell culture, with a higher absorbance meaning higher cell viability.
In general terms: Formazan colour is commonly taken as a measure of viable cells.

The test system of the next experiment is HEK 293 cells. The experiment is described as follows: MTT cell viability assay in parent HEK 293 cells. It counts as cell-based. As to the method:
as §1, §2
Cell viability was determined using an MTT assay. MTT was added to the cell cultures 180 minutes after ATP treatment. […] Cell viability was directly correlatable to the absorbance of 550 nm light by the cell culture, with a higher absorbance meaning higher cell viability.

The next experiment relates to IL-1β. The experiment is described as follows: Cytokine response of lipopolysaccharide treated rats (plasma IL-1β). It counts as in vivo, Sprague-Dawley rats. The conditions noted are these: blood at 240 min, example in present tense. As to the method:
Sprague-Dawley rats weighing approximately 300 g are treated with 1, 3, or 10 mg/kg P5P (or a saline control). Thirty minutes later (t=30), the animals are given a 50 μg/kg intraperitoneal injection of LPS (or a saline control). Temperature of the animals is measured, and a blood sample is collected at 240 minutes post-treatment (t=240).
Blood samples are transferred to heparinized tubes and plasma is separated by centrifugation. Plasma is assayed for IL-1β, [IL-6 and TNF-α].

The next experiment concerns the target T2, P2X7 receptors (Rattus norvegicus, UniProt Q64663).
T2 construct: expressed in transfected cells; host or cells: HEK 293
T2 sequence (Q64663 1-595): T1 sequence (Q64663 1-595)
In words: BzATP-mediated, P2X7-dependent cell death (Examples 1-2 repeated with BzATP). Type of experiment: cell-based. The settings on record: BzATP substituted for ATP; example in present tense. The source says:
Examples 1-2 are repeated, substituting BzATP for ATP. BzATP is known to be a specific agonist of P2X7 receptors. This Example yields results consistent with Examples 1-4, further establishing that the pathway utilized is a P2X7 dependent pathway.

`Nc1ncnc2c1ncn2[C@@H]1O[C@H](COP(=O)(O)OP(=O)(O)OP(=O)(O)O)[C@@H](O)[C@H]1O` [ATP, adenosine triphosphate]: the “processing and release of IL-1β into the culture media” value in experiment [1] (PMA/LPS primed THP-1 cells, versus untreated baseline) was “significant increase”. For the same compound, the “ATP concentration from which significant loss in cell viability starts (MTT)” value at rat P2X7 receptor (0 to 2 μM ATP tested) was no less than 0.4 µM. Besides, in the experiment with HEK 293 cells (parent HEK 293 cells, up to 2 μM ATP, MTT added 180 min after ATP), the “cell viability (MTT, absorbance at 550 nm)” value is listed as “did not significantly affect”.
As for pyridoxamine phosphate, in experiment [1], the “effect on ATP-induced processing and release of IL-1β” value (from here on “effect”) is given as “not effective; also recorded: no significant effect”.
Regarding `Cc1ncc(CO)c(CN)c1O` [pyridoxamine], the “effect” value in experiment [1] is listed as “not effective; also recorded: no significant effect”.
On the same count and under the same terms, with `Cc1ncc(CO)c(C=O)c1O` [pyridoxal] the entry was “not effective; also recorded: no significant effect”.
As to `Cc1ncc(COP(=O)(O)O)c(C=O)c1O` [P5P, pyridoxal-5′-phosphate], the “processing and release of IL-1β in vivo (plasma)” value in the experiment on IL-1β (rats, 1, 3 or 10 mg/kg P5P 30 min before 50 μg/kg i.p. LPS) is “significantly inhibits”. Besides, in experiment [1], the “effect” value is “uniquely effective; also recorded: significantly inhibited”. Moreover, at P2X7 receptors, the “protection from BzATP-mediated, P2X7-dependent cell death” value is “Protects Cells”. The figures for the “cell viability (MTT) of ATP treated cells after P5P pretreatment” value at rat P2X7 receptor (50 μM P5P half an hour before 0.4 μM ATP) and at rat P2X7 receptor (1.5 to 15 μM P5P 30 min before 0.4 μM ATP) were “significantly improved” and “did not significantly affect”, respectively. In addition, the “viability of P5P pretreated, ATP treated cells compared with control cells” value at rat P2X7 receptor (50 μM P5P, 0.4 μM ATP, control = sham P5P and sham ATP) is recorded as “no significant difference”. Also, in the experiment on HEK 293 cells (HEK 293 cells, 0 to 50 μM P5P 30 min before 0.4 μM ATP), the “cell viability (MTT) after P5P pretreatment and ATP” value is on record as “did not have any significant effect”.
For the compound `Cc1ncc(CO)c(CO)c1O` [pyridoxine], the “effect” value in experiment [1] is “not effective; also recorded: no significant effect”.
lipopolysaccharide [LPS]: the “processing and release of IL-1β [IL-6 and TNF-α] into the plasma” value with IL-1β (rats, 50 μg/kg intraperitoneal LPS) is “significant increase”.
